Test results from patent US11572590B2, “Methods for evaluating tumor cell spheroids using 3D microfluidic cell culture device” (Dana-Farber Cancer Institute, Inc., priority 2017, dated 2023).
Like-named read-outs stand apart in the source and are kept apart here.

Columns and labels:
Assay in all cases: SelectScreen Kinase Profiling, single point inhibition and IC50 for off-target kinases
Format in all cases: biochemical
[1] = target: off-target kinases (Homo sapiens, UniProt Q9UEW8); conditions: STK39 (STLK3), LanthaScreen
[2] = target: off-target kinases (Homo sapiens, UniProt Q9H1R3); conditions: MYLK2 (skMLCK), ATP Km app, ZLYTE
off-target kinases (Homo sapiens, UniProt Q9H1R3), sequence (Q9H1R3 whole entry): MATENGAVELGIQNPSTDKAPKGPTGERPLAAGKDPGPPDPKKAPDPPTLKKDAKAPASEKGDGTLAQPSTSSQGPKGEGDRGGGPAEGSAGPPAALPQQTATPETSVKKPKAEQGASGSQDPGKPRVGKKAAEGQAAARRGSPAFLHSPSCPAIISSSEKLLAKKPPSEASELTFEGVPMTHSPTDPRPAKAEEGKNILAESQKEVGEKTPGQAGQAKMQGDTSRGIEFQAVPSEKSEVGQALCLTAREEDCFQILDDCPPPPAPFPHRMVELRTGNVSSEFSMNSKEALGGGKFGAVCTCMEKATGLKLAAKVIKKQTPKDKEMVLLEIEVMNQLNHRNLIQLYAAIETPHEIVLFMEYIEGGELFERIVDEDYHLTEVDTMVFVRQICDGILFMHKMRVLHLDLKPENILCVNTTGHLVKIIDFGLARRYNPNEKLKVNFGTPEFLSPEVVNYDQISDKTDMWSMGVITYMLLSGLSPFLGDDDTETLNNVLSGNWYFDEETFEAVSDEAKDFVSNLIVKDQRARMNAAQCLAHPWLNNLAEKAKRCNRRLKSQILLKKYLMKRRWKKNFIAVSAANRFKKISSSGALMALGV

[3] = target: T1, off-target kinases (Homo sapiens, UniProt Q15835); conditions: GRK1, LanthaScreen Binding
T1 sequence (Q15835 1-563): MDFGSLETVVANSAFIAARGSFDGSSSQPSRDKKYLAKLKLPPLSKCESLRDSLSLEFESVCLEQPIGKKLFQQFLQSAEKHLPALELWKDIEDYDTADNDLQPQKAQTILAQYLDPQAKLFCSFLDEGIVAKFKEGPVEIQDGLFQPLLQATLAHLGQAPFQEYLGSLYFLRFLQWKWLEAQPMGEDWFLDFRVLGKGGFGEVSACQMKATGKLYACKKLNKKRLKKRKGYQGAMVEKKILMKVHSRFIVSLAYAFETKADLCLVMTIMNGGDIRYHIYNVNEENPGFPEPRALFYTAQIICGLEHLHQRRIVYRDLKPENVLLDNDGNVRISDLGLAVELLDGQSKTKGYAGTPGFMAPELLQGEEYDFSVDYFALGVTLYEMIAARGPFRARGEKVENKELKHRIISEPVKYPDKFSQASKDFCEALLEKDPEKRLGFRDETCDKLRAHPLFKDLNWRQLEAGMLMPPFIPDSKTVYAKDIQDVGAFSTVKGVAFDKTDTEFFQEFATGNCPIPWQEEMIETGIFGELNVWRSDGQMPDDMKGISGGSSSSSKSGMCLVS

[4] = target: off-target kinases (Homo sapiens, UniProt Q5S007); conditions: ATP Km app, Adapta
off-target kinases (Homo sapiens, UniProt Q5S007), sequence (Q5S007 whole entry): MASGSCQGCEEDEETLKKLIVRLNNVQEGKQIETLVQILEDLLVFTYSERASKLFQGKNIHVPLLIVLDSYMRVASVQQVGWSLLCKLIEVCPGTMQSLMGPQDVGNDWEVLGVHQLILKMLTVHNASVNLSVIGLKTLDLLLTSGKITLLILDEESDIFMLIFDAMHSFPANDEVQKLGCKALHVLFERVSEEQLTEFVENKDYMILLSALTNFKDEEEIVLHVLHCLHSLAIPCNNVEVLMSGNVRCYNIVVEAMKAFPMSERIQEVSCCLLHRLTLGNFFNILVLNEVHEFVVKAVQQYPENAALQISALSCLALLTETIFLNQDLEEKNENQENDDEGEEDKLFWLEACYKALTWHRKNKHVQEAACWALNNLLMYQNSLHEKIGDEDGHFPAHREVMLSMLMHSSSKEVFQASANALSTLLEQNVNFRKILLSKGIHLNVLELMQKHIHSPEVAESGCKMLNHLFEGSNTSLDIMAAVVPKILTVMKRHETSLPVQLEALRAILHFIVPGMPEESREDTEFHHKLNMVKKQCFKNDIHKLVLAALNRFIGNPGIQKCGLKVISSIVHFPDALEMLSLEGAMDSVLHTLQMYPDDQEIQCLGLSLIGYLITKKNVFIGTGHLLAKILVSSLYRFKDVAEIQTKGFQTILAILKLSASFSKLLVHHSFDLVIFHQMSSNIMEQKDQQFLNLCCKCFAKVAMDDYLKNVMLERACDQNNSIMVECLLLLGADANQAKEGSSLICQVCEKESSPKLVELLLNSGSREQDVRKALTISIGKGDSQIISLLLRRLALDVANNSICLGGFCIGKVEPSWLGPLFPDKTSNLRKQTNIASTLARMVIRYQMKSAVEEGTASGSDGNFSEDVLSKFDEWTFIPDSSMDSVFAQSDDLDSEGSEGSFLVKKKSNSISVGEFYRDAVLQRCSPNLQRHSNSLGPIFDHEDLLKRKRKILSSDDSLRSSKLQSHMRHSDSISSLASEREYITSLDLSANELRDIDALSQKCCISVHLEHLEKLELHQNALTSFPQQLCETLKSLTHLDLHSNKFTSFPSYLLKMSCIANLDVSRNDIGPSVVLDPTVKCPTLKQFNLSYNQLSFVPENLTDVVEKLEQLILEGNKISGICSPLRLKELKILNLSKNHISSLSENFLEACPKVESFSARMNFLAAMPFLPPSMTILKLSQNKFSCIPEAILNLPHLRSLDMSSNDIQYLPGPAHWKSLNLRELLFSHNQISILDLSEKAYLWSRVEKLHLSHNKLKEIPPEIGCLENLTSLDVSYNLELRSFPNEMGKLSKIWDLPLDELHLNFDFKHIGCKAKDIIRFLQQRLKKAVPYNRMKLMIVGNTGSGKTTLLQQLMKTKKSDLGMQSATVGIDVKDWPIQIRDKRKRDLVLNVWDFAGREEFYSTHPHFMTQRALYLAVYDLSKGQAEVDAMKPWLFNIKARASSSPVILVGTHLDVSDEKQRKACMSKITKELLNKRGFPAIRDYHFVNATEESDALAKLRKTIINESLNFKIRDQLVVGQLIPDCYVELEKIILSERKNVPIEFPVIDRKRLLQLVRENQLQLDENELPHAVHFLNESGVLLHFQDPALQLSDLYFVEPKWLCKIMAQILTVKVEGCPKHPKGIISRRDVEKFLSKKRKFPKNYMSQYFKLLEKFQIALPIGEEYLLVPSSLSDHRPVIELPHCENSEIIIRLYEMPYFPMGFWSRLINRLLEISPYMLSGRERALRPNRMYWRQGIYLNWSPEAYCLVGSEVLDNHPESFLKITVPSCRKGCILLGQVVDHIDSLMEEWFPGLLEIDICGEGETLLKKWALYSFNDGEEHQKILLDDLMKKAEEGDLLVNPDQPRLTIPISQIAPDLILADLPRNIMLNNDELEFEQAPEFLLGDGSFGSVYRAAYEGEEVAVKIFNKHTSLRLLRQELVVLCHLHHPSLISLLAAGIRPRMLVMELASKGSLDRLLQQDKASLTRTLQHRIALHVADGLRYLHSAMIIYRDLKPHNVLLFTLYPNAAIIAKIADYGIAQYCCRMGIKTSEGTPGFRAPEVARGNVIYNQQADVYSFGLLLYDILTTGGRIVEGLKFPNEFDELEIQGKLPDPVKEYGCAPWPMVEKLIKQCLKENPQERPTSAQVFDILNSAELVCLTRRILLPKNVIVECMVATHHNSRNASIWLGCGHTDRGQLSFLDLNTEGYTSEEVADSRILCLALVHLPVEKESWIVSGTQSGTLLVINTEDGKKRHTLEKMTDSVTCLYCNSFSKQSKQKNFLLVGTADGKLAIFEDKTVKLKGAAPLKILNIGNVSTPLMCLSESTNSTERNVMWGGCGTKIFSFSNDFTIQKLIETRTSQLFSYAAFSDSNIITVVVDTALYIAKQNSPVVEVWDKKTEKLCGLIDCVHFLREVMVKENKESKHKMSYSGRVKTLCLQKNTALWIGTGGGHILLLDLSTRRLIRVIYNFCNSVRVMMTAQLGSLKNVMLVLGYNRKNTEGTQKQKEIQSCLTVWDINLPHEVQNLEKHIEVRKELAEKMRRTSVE

[5] = target: off-target kinases (Homo sapiens, UniProt Q13705); conditions: ACVR2B, LanthaScreen Binding
[6] = target: off-target kinases (Homo sapiens, UniProt Q16539); conditions: ZLYTE
off-target kinases (Homo sapiens, UniProt Q16539), sequence (Q16539 whole entry): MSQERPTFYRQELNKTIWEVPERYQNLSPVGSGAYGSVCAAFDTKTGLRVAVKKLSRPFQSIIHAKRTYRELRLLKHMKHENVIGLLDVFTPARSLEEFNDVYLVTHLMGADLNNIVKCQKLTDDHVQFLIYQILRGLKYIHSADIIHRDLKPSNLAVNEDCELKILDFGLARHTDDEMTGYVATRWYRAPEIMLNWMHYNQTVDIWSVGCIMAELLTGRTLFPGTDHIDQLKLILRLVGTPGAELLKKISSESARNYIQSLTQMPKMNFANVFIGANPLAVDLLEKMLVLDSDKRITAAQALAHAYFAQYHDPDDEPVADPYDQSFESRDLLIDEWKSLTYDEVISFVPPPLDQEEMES

[7] = target: off-target kinases (Homo sapiens, UniProt P51812); conditions: RPS6KA3 (RSK2), ZLYTE, ATP Km app
off-target kinases (Homo sapiens, UniProt P51812), sequence (P51812 whole entry): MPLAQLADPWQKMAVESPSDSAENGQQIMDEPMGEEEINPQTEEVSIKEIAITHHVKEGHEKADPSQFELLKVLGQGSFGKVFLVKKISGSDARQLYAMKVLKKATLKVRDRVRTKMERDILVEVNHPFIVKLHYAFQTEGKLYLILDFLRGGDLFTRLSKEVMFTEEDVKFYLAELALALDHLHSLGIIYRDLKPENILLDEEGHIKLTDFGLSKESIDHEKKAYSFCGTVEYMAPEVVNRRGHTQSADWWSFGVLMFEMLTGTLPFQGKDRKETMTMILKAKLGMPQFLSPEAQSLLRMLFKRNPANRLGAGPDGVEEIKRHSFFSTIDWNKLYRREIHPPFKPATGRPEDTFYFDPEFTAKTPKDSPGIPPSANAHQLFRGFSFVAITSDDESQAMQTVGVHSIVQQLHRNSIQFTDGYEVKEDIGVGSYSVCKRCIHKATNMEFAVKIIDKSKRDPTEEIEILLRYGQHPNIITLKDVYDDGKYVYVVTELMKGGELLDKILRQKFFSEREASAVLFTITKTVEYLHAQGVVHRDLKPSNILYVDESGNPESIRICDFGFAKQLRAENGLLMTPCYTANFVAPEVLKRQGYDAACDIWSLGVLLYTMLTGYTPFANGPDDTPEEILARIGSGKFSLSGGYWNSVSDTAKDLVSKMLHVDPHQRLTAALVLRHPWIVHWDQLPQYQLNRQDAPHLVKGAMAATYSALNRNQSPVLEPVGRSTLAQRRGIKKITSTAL

[8] = target: off-target kinases (Homo sapiens, UniProt P57059); conditions: SIK1, LanthaScreen Binding
off-target kinases (Homo sapiens, UniProt P57059), sequence (P57059 whole entry): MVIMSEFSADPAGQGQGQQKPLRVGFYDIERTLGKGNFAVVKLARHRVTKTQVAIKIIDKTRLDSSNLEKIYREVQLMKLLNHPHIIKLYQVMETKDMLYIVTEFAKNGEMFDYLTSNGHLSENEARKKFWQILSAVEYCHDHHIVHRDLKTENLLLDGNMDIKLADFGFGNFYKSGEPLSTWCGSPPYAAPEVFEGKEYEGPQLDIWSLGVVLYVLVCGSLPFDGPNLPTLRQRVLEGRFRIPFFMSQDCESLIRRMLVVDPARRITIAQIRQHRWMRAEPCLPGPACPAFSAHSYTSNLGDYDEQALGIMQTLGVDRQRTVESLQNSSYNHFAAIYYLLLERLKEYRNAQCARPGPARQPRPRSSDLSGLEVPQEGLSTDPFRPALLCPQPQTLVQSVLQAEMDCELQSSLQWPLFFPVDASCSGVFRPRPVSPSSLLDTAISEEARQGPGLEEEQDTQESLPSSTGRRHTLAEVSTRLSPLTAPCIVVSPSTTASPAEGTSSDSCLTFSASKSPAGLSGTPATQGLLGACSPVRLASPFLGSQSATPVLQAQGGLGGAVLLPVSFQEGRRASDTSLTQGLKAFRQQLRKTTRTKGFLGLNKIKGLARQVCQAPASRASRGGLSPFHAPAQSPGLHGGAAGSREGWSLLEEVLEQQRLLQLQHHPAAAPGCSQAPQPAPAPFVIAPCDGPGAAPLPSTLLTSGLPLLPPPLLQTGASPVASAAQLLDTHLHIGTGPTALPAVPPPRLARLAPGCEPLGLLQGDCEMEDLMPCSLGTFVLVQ

N#Cc1cc(-c2ncnc(Nc3ccc(N4CCN(C5COC5)CC4)cc3)n2)ccc1OC1CCOCC1 [Compound 1, 5-(4-((4-(4-(oxetan-3-yl)piperazin-1-yl)phenyl)amino)-1,3,5-triazin-2-yl)-2-((tetrahydro-2H-pyran-4-yl)oxy)benzonitrile]
inhibition ([1]; read-out: % Inhibition 1): 10% | inhibition ([1]; read-out: % Inhibition 2): 9% | inhibition ([1]; read-out: % Inhibition Avg): 10% | inhibition ([2]; read-out: % Inhibition 1): 65% | inhibition ([2]; read-out: % Inhibition 2): 60% | inhibition ([2]; read-out: % Inhibition Avg): 63% | inhibition ([3]; read-out: % Inhibition 1): 7% | inhibition ([3]; read-out: % Inhibition 2): 2% | inhibition ([3]; read-out: % Inhibition Avg): 5% | inhibition ([4]; LRRK2, read-out: % Inhibition 1): 99% | inhibition ([4]; LRRK2, read-out: % Inhibition 2): 100% | inhibition ([4]; LRRK2, read-out: % Inhibition Avg): 100% | inhibition ([4]; LRRK2 FL, read-out: % Inhibition 1): 98% | inhibition ([4]; LRRK2 FL, read-out: % Inhibition 2): 98% | inhibition ([4]; LRRK2 FL, read-out: % Inhibition Avg): 98% | inhibition ([5]; read-out: % Inhibition 1): 27% | inhibition ([5]; read-out: % Inhibition 2): 31% | inhibition ([5]; read-out: % Inhibition Avg): 29% | inhibition ([6]; MAPK14 (p38 alpha) Direct, ATP Km app, read-out: % Inhibition 1): 2% | inhibition ([6]; MAPK14 (p38 alpha) Direct, ATP Km app, read-out: % Inhibition 2): 1% | inhibition ([6]; MAPK14 (p38 alpha) Direct, ATP Km app, read-out: % Inhibition Avg): 1% | inhibition ([6]; MAPK14 (p38 alpha), ATP 100, read-out: % Inhibition 1): -1% | inhibition ([6]; MAPK14 (p38 alpha), ATP 100, read-out: % Inhibition 2): 9% | inhibition ([6]; MAPK14 (p38 alpha), ATP 100, read-out: % Inhibition Avg): 4% | inhibition ([7]; read-out: % Inhibition 1): 17% | inhibition ([7]; read-out: % Inhibition 2): 10% | inhibition ([7]; read-out: % Inhibition Avg): 14% | inhibition ([8]; read-out: % Inhibition 1): 57% | inhibition ([8]; read-out: % Inhibition 2): 54% | inhibition ([8]; read-out: % Inhibition Avg): 56%
